# Data reported in paper PMC6446049 (Alzheimer's & Dementia : Translational Research & Clinical …, 2019).
# Legend:
# [1] = system: healthy elderly subjects (scopolamine challenge); test: N-back test in scopolamine challenge; assay type: in vivo, human; details: for N-back, 0-back accuracy / N-back, 0-back reaction time / N-back, 1-back accuracy / N-back, 2-back accuracy / N-back, 2-back reaction time: vs placebo (95% CI), scopolamine 0.3 mg i.v.
# [2] = system: healthy elderly subjects (scopolamine challenge); test: Saccadic eye movements in scopolamine challenge; assay type: in vivo, human; details: for Saccadic inaccuracy / Saccadic reaction time: vs placebo (95% CI), scopolamine 0.3 mg i.v.
# [3] = system: healthy elderly subjects (scopolamine challenge); test: Adaptive tracking; assay type: in vivo, human; details: for Adaptive tracking: vs placebo (95% CI), scopolamine 0.3 mg i.v.
# [4] = system: healthy elderly subjects (scopolamine challenge); test: Safety assessment: adverse events, vital signs, ECG, laboratory; assay type: in vivo, human; details: scopolamine 0.3 mg i.v.
# [5] = system: patients with mild-to-moderate Alzheimer's disease; details: cited from earlier work
# [6] = system: healthy volunteers; details: single oral doses; cited from earlier work
# [7] = Plasma pharmacokinetics; details: noncompartmental analysis
# [8] = system: healthy volunteers; details: 0.5 mg intravenously; healthy young volunteers; cited from earlier work
# [9] = system: healthy elderly subjects (scopolamine challenge); test: Body sway meter; assay type: in vivo, human; details: scopolamine alone 0.3 mg i.v.
# [10] = system: healthy subjects; details: scopolamine alone, previous study; cited from earlier work
# [11] = system: healthy elderly subjects (scopolamine challenge); test: Simple reaction time task in scopolamine challenge; assay type: in vivo, human; details: scopolamine alone 0.3 mg i.v.
# [12] = system: healthy elderly subjects (scopolamine challenge); test: Pharmaco-electroencephalography in scopolamine challenge; assay type: in vivo, human; details: scopolamine alone 0.3 mg i.v.
# [13] = DPZ 2.5 mg + EVP-6124 placebo, N 11
# [14] = DPZ 5.0 mg + EVP-6124 placebo, N 10
# [15] = DPZ placebo + EVP-6124 0.3 mg, N 12
# [16] = DPZ placebo + EVP-6124 1 mg, N 11
# [17] = DPZ placebo + EVP-6124 2 mg, N 12
# [18] = DPZ placebo + EVP-6124 4 mg, N 12
compound,measurement,setting,value
"COc1cc2c(cc1OC)C(=O)C(CC1CCN(Cc3ccccc3)CC1)C2 (centres unmarked) [DPZ, donepezil, reference compound]","N-back, 0-back accuracy",[1]; DPZ 2.5 mg + EVP-6124 placebo,"0.03 (−0.05, 0.11) P = .4512%"
same,"N-back, 0-back reaction time",[1]; DPZ 2.5 mg + EVP-6124 placebo,"−24 (−48, 1) P = .0615 ms"
same,"N-back, 1-back accuracy",[1]; DPZ 2.5 mg + EVP-6124 placebo,"−0.00 (−0.12, 0.11) P = .9598%"
same,"N-back, 2-back accuracy",[1]; DPZ 2.5 mg + EVP-6124 placebo,"0.04 (−0.08, 0.17) P = .5034%"
same,"N-back, 2-back reaction time",[1]; DPZ 2.5 mg + EVP-6124 placebo,"−27 (−70, 16) P = .2115 ms"
same,"N-back, 0-back accuracy",[1]; DPZ 5 mg + EVP-placebo,"0.04 (−0.02, 0.10) P = .1614%"
same,"N-back, 0-back reaction time",[1]; DPZ 5 mg + EVP-placebo,"−18 (−36, −1) P = .0386 ms"
same,"N-back, 1-back accuracy",[1]; DPZ 5 mg + EVP-placebo,"0.03 (−0.05, 0.11) P = .4286%"
same,"N-back, 2-back accuracy",[1]; DPZ 5 mg + EVP-placebo,"0.02 (−0.08, 0.11) P = .7469%"
same,"N-back, 2-back reaction time",[1]; DPZ 5 mg + EVP-placebo,"35 (−1, 70) P = .0541 ms"
same,Saccadic inaccuracy,[2]; DPZ 2.5 mg + EVP-6124 placebo,"−1.4 (−2.7, −0.1) P = .0311%"
same,Saccadic reaction time,[2]; DPZ 2.5 mg + EVP-6124 placebo,"−4 (−20, 11) P = .5539 ms"
same,Saccadic inaccuracy,[2]; DPZ 5 mg + EVP-placebo,"0.0 (−0.9, 1.0) P = .9433%"
same,Saccadic reaction time,[2]; DPZ 5 mg + EVP-placebo,"−11 (−20, −2) P = .0190 ms"
same,Adaptive tracking,[3]; DPZ 2.5 mg + EVP-6124 placebo,"1.49 (0.20, 2.77) P = .0247%"
same,Adaptive tracking,[3]; DPZ 5 mg + EVP-placebo,"0.72 (−0.76, 2.20) P = .3297%"
same,"Headache, treatment-related adverse event, subjects n (%)",[4]; [13],1 (9.1%)
same,"Somnolence, treatment-related adverse event, subjects n (%)",[4]; [13],7 (63.6%)
same,"Disturbance in attention, treatment-related adverse event, subjects n (%)",[4]; [14],1 (10.0%)
same,"Dizziness, treatment-related adverse event, subjects n (%)",[4]; [14],6 (60.0%)
same,"Dry mouth, treatment-related adverse event, subjects n (%)",[4]; [14],6 (60.0%)
same,"Headache, treatment-related adverse event, subjects n (%)",[4]; [14],1 (10.0%)
same,"Somnolence, treatment-related adverse event, subjects n (%)",[4]; [14],6 (60.0%)
O=C(N[C@H]1CN2CCC1CC2)c1cc2cccc(Cl)c2s1 [EVP-6124],reason why phase III trials were halted in 2015,[5],gastrointestinal adverse events
same,"N-back, 0-back accuracy",[1]; DPZ placebo + EVP-6124 0.3 mg,"0.02 (−0.04, 0.08) P = .5073%"
same,"N-back, 0-back reaction time",[1]; DPZ placebo + EVP-6124 0.3 mg,"8 (−12, 29) P = .4004 ms"
same,"N-back, 1-back accuracy",[1]; DPZ placebo + EVP-6124 0.3 mg,"0.02 (−0.05, 0.10) P = .5558%"
same,"N-back, 2-back accuracy",[1]; DPZ placebo + EVP-6124 0.3 mg,"−0.02 (−0.11, 0.07) P = .6878%"
same,"N-back, 2-back reaction time",[1]; DPZ placebo + EVP-6124 0.3 mg,"−5 (−36, 25) P = .7210 ms"
same,"N-back, 0-back accuracy",[1]; DPZ placebo + EVP-6124 1 mg,"0.04 (−0.03, 0.10) P = .2318%"
same,"N-back, 0-back reaction time",[1]; DPZ placebo + EVP-6124 1 mg,"−17 (−37, 4) P = .1085 ms"
same,"N-back, 1-back accuracy",[1]; DPZ placebo + EVP-6124 1 mg,"0.04 (−0.04, 0.12) P = .3062%"
same,"N-back, 2-back accuracy",[1]; DPZ placebo + EVP-6124 1 mg,"0.01 (−0.08, 0.10) P = .8796%"
same,"N-back, 2-back reaction time",[1]; DPZ placebo + EVP-6124 1 mg,"−3 (−33, 28) P = .8693 ms"
same,"N-back, 0-back accuracy",[1]; DPZ placebo + EVP-6124 2 mg,"0.05 (−0.01, 0.11) P = .0818%"
same,"N-back, 0-back reaction time",[1]; DPZ placebo + EVP-6124 2 mg,"−5 (−25, 15) P = .6209 ms"
same,"N-back, 2-back accuracy",[1]; DPZ placebo + EVP-6124 2 mg,"0.03 (−0.06, 0.13) P = .4557%"
same,"N-back, 2-back reaction time",[1]; DPZ placebo + EVP-6124 2 mg,"1 (−29, 31) P = .9305 ms"
same,"N-back, 0-back reaction time",[1]; DPZ placebo + EVP-6124 4 mg,"−16 (−36, 4) P = .1151 ms"
same,"N-back, 1-back accuracy",[1]; DPZ placebo + EVP-6124 4 mg,"0.05 (−0.03, 0.12) P = .2385%"
same,"N-back, 2-back accuracy",[1]; DPZ placebo + EVP-6124 4 mg,"−0.02 (−0.11, 0.07) P = .7181%"
same,"N-back, 2-back reaction time",[1]; DPZ placebo + EVP-6124 4 mg,"−8 (−39, 22) P = .5733 ms"
same,dose at which effects on the Digit Symbol Substitution Test were most prevalent,[6],20 mg
same,Saccadic inaccuracy,[2]; DPZ placebo + EVP-6124 0.3 mg,"0.6 (−0.2, 1.4) P = .1224%"
same,Saccadic reaction time,[2]; DPZ placebo + EVP-6124 0.3 mg,"−4 (−13, 5) P = .4018 ms"
same,Saccadic inaccuracy,[2]; DPZ placebo + EVP-6124 1 mg,"0.0 (−0.8, 0.8) P = .9525%"
same,Saccadic reaction time,[2]; DPZ placebo + EVP-6124 1 mg,"−2 (−12, 7) P = .5871 ms"
same,Saccadic inaccuracy,[2]; DPZ placebo + EVP-6124 2 mg,"−0.1 (−0.9, 0.6) P = .7196%"
same,Saccadic reaction time,[2]; DPZ placebo + EVP-6124 2 mg,"−3 (−12, 6) P = .4605 ms"
same,Saccadic inaccuracy,[2]; DPZ placebo + EVP-6124 4 mg,"0.3 (−0.5, 1.1) P = .4213%"
same,Saccadic reaction time,[2]; DPZ placebo + EVP-6124 4 mg,"3 (−6, 11) P = .5707 ms"
same,Adaptive tracking,[3]; DPZ placebo + EVP-6124 0.3 mg,"−1.23 (−2.80, 0.34) P = .1200%"
same,Adaptive tracking,[3]; DPZ placebo + EVP-6124 1 mg,"0.03 (−1.56, 1.63) P = .9671%"
same,Adaptive tracking,[3]; DPZ placebo + EVP-6124 2 mg,"−0.83 (−2.33, 0.67) P = .2691%"
same,Adaptive tracking,[3]; DPZ placebo + EVP-6124 4 mg,"−0.26 (−1.76, 1.24) P = .7281%"
same,"Disturbance in attention, treatment-related adverse event, subjects n (%)",[4]; [15],2 (16.7%)
same,"Dizziness, treatment-related adverse event, subjects n (%)",[4]; [15],6 (50.0%)
same,"Dry mouth, treatment-related adverse event, subjects n (%)",[4]; [15],8 (66.7%)
same,"Gait disturbance, treatment-related adverse event, subjects n (%)",[4]; [15],1 (8.3%)
same,"Headache, treatment-related adverse event, subjects n (%)",[4]; [15],1 (8.3%)
same,"Somnolence, treatment-related adverse event, subjects n (%)",[4]; [15],6 (50.0%)
same,"Disturbance in attention, treatment-related adverse event, subjects n (%)",[4]; [16],2 (18.2%)
same,"Dizziness, treatment-related adverse event, subjects n (%)",[4]; [16],3 (27.3%)
same,"Gait disturbance, treatment-related adverse event, subjects n (%)",[4]; [16],1 (9.1%)
same,"Headache, treatment-related adverse event, subjects n (%)",[4]; [16],3 (27.3%)
same,"Somnolence, treatment-related adverse event, subjects n (%)",[4]; [16],5 (45.5%)
same,"Disturbance in attention, treatment-related adverse event, subjects n (%)",[4]; [17],1 (8.3%)
same,"Dizziness, treatment-related adverse event, subjects n (%)",[4]; [17],4 (33.3%)
same,"Dry mouth, treatment-related adverse event, subjects n (%)",[4]; [17],10 (83.3%)
same,"Gait disturbance, treatment-related adverse event, subjects n (%)",[4]; [17],1 (8.3%)
same,"Somnolence, treatment-related adverse event, subjects n (%)",[4]; [17],8 (66.7%)
same,"Disturbance in attention, treatment-related adverse event, subjects n (%)",[4]; [18],2 (16.7%)
same,"Dizziness, treatment-related adverse event, subjects n (%)",[4]; [18],5 (41.7%)
same,"Dry mouth, treatment-related adverse event, subjects n (%)",[4]; [18],10 (83.3%)
same,"Gait disturbance, treatment-related adverse event, subjects n (%)",[4]; [18],3 (25.0%)
same,"Headache, treatment-related adverse event, subjects n (%)",[4]; [18],1 (8.3%)
same,"Somnolence, treatment-related adverse event, subjects n (%)",[4]; [18],7 (58.3%)
same,EVP-6124 pharmacokinetic parameters with or without donepezil,[7],similar
CN1[C@@H]2C[C@@H](OC(=O)[C@H](CO)c3ccccc3)C[C@H]1[C@@H]1O[C@@H]12 [scopolamine],performance on N-back,[1]; scopolamine alone 0.3 mg i.v.,worsened performance
same,cognitive effect of scopolamine,[8],significant cognitive deficits
same,performance on body sway,[9],worsened performance
same,performance on saccadic eye movements,[2]; scopolamine alone 0.3 mg i.v.,worsened performance
same,performance on adaptive tracking,[3]; scopolamine alone 0.3 mg i.v.,worsened performance
same,reduction of adaptive tracking scores,[10],42%
same,performance on SRT,[11],worsened performance
same,EEG alpha frequency,[12],decrease
same,EEG beta frequency,[12],did not affect
same,EEG delta frequency,[12],increase
same,EEG theta frequency,[12],did not affect
